Reference: ChEMBL document CHEMBL3217418, “Design, synthesis and biological activity evaluation of regioisomeric spiro-(indoline-isoxazolidines) in the inhibition of TNF--induced ICAM-1 expression on human endothelial cells” (Medchemcomm, 2012)
Active and inactive are the calls of the source. No cut-off for these calls is given here.

Key:
[1] = Cytotoxicity against HUVEC assessed as concentration at which viability is > 95 % after 24 hrs by MTT assay; type: cell-based; conditions: human, HUVEC cells; read-out: MTD
HUVEC = assay: Antiinflammatory activity in HUVEC assessed as inhibition of TNFalpha-induced ICAM-1 expression incubated for 2 hrs prior to TNFalpha challenge measured after 16 hrs by ELISA; type: functional, cell-based; conditions: Homo sapiens
[2] = Cytotoxicity against HUVEC assessed as cell viability after 24 hrs by MTT assay relative to control; type: cell-based; parameters: concentration or dose not given beside the values; conditions: human, HUVEC cells; read-out: Activity
[3] = target: Transcription factor p65 (Homo sapiens) (UniProt Q04206); assay: Inhibition of NF-kappaB p65 subunit translocation from cytoplasm to nucleus in HUVEC at 100 uM incubated for 2 hrs prior to TNFalpha challenge measured after 30 mins by SDS-PAGE
Chain of Transcription factor p65 (Homo sapiens) (Q04206 whole entry): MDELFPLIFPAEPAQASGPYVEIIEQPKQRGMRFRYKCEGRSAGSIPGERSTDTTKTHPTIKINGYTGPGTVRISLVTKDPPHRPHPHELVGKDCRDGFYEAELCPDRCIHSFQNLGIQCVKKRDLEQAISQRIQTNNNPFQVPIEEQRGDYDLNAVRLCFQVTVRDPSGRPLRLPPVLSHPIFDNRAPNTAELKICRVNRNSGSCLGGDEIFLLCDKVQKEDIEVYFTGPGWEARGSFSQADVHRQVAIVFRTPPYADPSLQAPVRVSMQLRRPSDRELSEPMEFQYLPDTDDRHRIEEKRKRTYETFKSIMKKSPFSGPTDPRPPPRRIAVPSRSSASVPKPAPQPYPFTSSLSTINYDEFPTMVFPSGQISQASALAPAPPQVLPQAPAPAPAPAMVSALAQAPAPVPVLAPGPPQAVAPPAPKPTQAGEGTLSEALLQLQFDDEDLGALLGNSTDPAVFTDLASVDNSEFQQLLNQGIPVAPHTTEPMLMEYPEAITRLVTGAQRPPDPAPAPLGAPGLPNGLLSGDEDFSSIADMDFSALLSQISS

[4] = target: Transcription factor p65 (Homo sapiens) (UniProt Q04206); assay: Inhibition of NF-kappaB p65 subunit translocation from cytoplasm to nucleus in HUVEC at 1 to 100 uM incubated for 2 hrs prior to TNFalpha challenge measured after 30 mins by SDS-PAGE
[5] = target: Transcription factor p65 (Homo sapiens) (UniProt Q04206); assay: Inhibition of NF-kappaB p65 subunit translocation from cytoplasm to nucleus in HUVEC assessed as NF-kappaB p65 subunit level in cytoplasm at 1 to 100 uM incubated for 2 hrs prior to TNFalpha challenge measured after 30 mins by densitometry
Neutrophil = assay: Inhibition of human neutrophil adhesion to human endothelial cells incubated for 2 hrs prior to TNFalpha challenge measured after 6 hrs by spectroscopy; type: functional, cell-based
[6] = target: Transcription factor p65 (Homo sapiens) (UniProt Q04206); assay: Inhibition of NF-kappaB p65 subunit translocation from cytoplasm to nucleus in HUVEC assessed as NF-kappaB p65 subunit level in nuclear extract at 1 to 100 uM incubated for 2 hrs prior to TNFalpha challenge measured after 30 mins by densitometry

CCOC(=O)C1ON(c2ccccc2)C(c2cccc(C)c2)C12C(=O)Nc1ccc(F)cc12 (stereo not given)
MNTC at 24 h [1]: 112 µM
IC50 (HUVEC): 45 µM
viability at 24 h [2]: 98%

CCOC(=O)C1ON(c2ccccc2)C(c2ccc([N+](=O)[O-])cc2)C12C(=O)Nc1ccccc12 (stereo not given)
MNTC at 24 h [1]: 218 µM
IC50 (HUVEC): > 217 µM
viability at 24 h [2]: 97%

CCOC(=O)C1ON(c2ccccc2)C(c2ccc(C(F)(F)F)cc2)C12C(=O)Nc1ccc(F)cc12 (stereo not given)
MNTC at 24 h [1]: 100 µM
IC50 (HUVEC): 57 µM
viability at 24 h [2]: 96%

CCOC(=O)C1C(c2cccc([N+](=O)[O-])c2)N(c2ccccc2)OC12C(=O)Nc1ccccc12 (stereo not given)
MNTC at 24 h [1]: 218 µM
IC50 (HUVEC): 45 µM
viability at 24 h [2]: 98%

CCOC(=O)C1ON(c2ccccc2)C(c2cccc(Br)c2)C12C(=O)Nc1ccccc12 (stereo not given)
MNTC at 24 h [1]: 203 µM
IC50 (HUVEC): 57 µM
viability at 24 h [2]: 95%

CCOC(=O)C1ON(c2ccccc2)C(c2ccc(F)cc2)C12C(=O)Nc1ccc(F)cc12 (stereo not given)
MNTC at 24 h [1]: 111 µM
IC50 (HUVEC): > 111 µM
viability at 24 h [2]: 96%

CCOC(=O)C1ON(c2ccccc2)C(c2ccc(Cl)cc2)C12C(=O)Nc1ccc(F)cc12 (stereo not given)
MNTC at 24 h [1]: 107 µM
IC50 (HUVEC): 54 µM
viability at 24 h [2]: 96%

CCOC(=O)C1C(c2cccc(C)c2)N(c2ccccc2)OC12C(=O)Nc1ccccc12 (stereo not given)
MNTC at 24 h [1]: 234 µM
IC50 (HUVEC): 57 µM
viability at 24 h [2]: 96%

CCOC(=O)C1ON(c2ccccc2)C(c2cccc([N+](=O)[O-])c2)C12C(=O)Nc1ccccc12 (stereo not given)
MNTC at 24 h [1]: 218 µM
IC50 (HUVEC): 169 µM
viability at 24 h [2]: 96%

CCOC(=O)C1C(c2ccc(Cl)cc2)N(c2ccccc2)OC12C(=O)Nc1ccccc12 (stereo not given)
MNTC at 24 h [1]: 223 µM
IC50 (HUVEC): > 223 µM
viability at 24 h [2]: 96%

CCOC(=O)C1C(c2cccc(OC)c2OC)N(c2ccccc2)OC12C(=O)Nc1ccc(F)cc12 (stereo not given)
MNTC at 24 h [1]: 102 µM
IC50 (HUVEC): 27 µM
viability at 24 h [2]: 99%

CCOC(=O)C1C(c2ccc(F)cc2)N(c2ccccc2)OC12C(=O)Nc1ccccc12 (stereo not given)
MNTC at 24 h [1]: 231 µM
IC50 (HUVEC): 146 µM
viability at 24 h [2]: 96%

CCOC(=O)C1ON(c2ccccc2)C(c2ccc(Br)cc2)C12C(=O)Nc1ccc(F)cc12 (stereo not given)
MNTC at 24 h [1]: 98 µM
IC50 (HUVEC): 35 µM
viability at 24 h [2]: 98%

CCOC(=O)C1ON(c2ccccc2)C(c2ccc(F)c(F)c2)C12C(=O)Nc1ccc(F)cc12 (stereo not given)
MNTC at 24 h [1]: 107 µM
IC50 (HUVEC): 62 µM
viability at 24 h [2]: 95%

CCOC(=O)C1C(c2ccc(C)cc2)N(c2ccccc2)OC12C(=O)Nc1ccccc12 (stereo not given)
MNTC at 24 h [1]: 234 µM
IC50 (HUVEC): 31 µM
viability at 24 h [2]: 96%

CCOC(=O)C1C(c2ccc(C#N)cc2)N(c2ccccc2)OC12C(=O)Nc1ccc(F)cc12 (stereo not given)
MNTC at 24 h [1]: 110 µM
IC50 (HUVEC): 49 µM
viability at 24 h [2]: 98%

CCOC(=O)C1ON(c2ccccc2)C(c2ccc(N(C)C)cc2)C12C(=O)Nc1ccc(F)cc12 (stereo not given)
MNTC at 24 h [1]: 110 µM
IC50 (HUVEC): 26 µM
viability at 24 h [2]: 96%

CCOC(=O)C1ON(c2ccccc2)C(c2cccc(F)c2)C12C(=O)Nc1ccc(F)cc12 (stereo not given)
MNTC at 24 h [1]: 111 µM
IC50 (HUVEC): 66 µM
viability at 24 h [2]: 95%

CCOC(=O)C1ON(c2ccccc2)C(c2cccc(C)c2)C12C(=O)Nc1ccccc12 (stereo not given)
MNTC at 24 h [1]: 234 µM
IC50 (HUVEC): 35 µM
viability at 24 h [2]: 98%

CCOC(=O)C1ON(c2ccccc2)C(c2ccc(C)cc2)C12C(=O)Nc1ccccc12 (stereo not given)
MNTC at 24 h [1]: 234 µM
IC50 (HUVEC): 52 µM
viability at 24 h [2]: 99%

CCOC(=O)C1ON(c2ccccc2)C(c2ccc(C#N)cc2)C12C(=O)Nc1ccc(F)cc12 (stereo not given)
MNTC at 24 h [1]: 110 µM
IC50 (HUVEC): 48 µM
viability at 24 h [2]: 96%

CCOC(=O)C1ON(c2ccccc2)C(c2cccc(Cl)c2)C12C(=O)Nc1ccccc12 (stereo not given)
MNTC at 24 h [1]: 223 µM
IC50 (HUVEC): 25 µM
viability at 24 h [2]: 96%

O=C(/C=C/C=C/c1ccc2c(c1)OCO2)N1CCCCC1 [PIPERINE]
MNTC at 24 h [1]: 250 µM
IC50 (HUVEC): 100 µM
viability at 24 h [2]: 98%

CCOC(=O)C1ON(c2ccccc2)C(c2cccc(OC)c2OC)C12C(=O)Nc1ccc(F)cc12 (stereo not given)
MNTC at 24 h [1]: 102 µM
IC50 (HUVEC): 32 µM
viability at 24 h [2]: 98%

CCOC(=O)C1C(c2ccc([N+](=O)[O-])cc2)N(c2ccccc2)OC12C(=O)Nc1ccccc12 (stereo not given)
MNTC at 24 h [1]: 218 µM
IC50 (HUVEC): > 217 µM
viability at 24 h [2]: 97%

CCOC(=O)C1ON(c2ccccc2)C(c2ccccc2F)C12C(=O)Nc1ccc(F)cc12 (stereo not given)
MNTC at 24 h [1]: 111 µM
IC50 (HUVEC): 51 µM
viability at 24 h [2]: 96%

S=C(S)N1CCCC1
inhibition [3]: Active

CCOC(=O)C1ON(c2ccccc2)C(c2cccc(F)c2)C12C(=O)Nc1ccccc12 (stereo not given)
MNTC at 24 h [1]: 231 µM
IC50 (HUVEC): > 162 µM
viability at 24 h [2]: 98%

CCOC(=O)C1C(c2ccc(Br)cc2)N(c2ccccc2)OC12C(=O)Nc1ccccc12 (stereo not given)
MNTC at 24 h [1]: 203 µM
IC50 (HUVEC): 41 µM
viability at 24 h [2]: 96%

CCOC(=O)C1ON(c2ccccc2)C(c2ccc(Br)cc2)C12C(=O)Nc1ccccc12 (stereo not given)
MNTC at 24 h [1]: 203 µM
IC50 (HUVEC): 51 µM
viability at 24 h [2]: 98%

CCOC(=O)C1ON(c2ccccc2)C(c2ccc([N+](=O)[O-])cc2)C12C(=O)Nc1ccc(F)cc12 (stereo not given)
MNTC at 24 h [1]: 105 µM
IC50 (HUVEC): 32 µM
viability at 24 h [2]: 97%

CCOC(=O)C1ON(c2ccccc2)C(c2ccc(Cl)cc2)C12C(=O)Nc1ccccc12 (stereo not given)
MNTC at 24 h [1]: 223 µM
IC50 (HUVEC): 147 µM
viability at 24 h [2]: 96%

CCOC(=O)C1ON(c2ccccc2)C(c2cc(OC)c(OC)c(OC)c2)C12C(=O)Nc1ccc(F)cc12 (stereo not given)
MNTC at 24 h [1]: 96 µM
IC50 (HUVEC): 29 µM
viability at 24 h [2]: 97%

CCOC(=O)C1ON(c2ccccc2)C(c2ccc(OC)cc2)C12C(=O)Nc1ccc(F)cc12 (stereo not given)
MNTC at 24 h [1]: 108 µM
IC50 (HUVEC): 42 µM
viability at 24 h [2]: 96%

CCOC(=O)C1C(c2cccc(Br)c2)N(c2ccccc2)OC12C(=O)Nc1ccccc12 (stereo not given)
MNTC at 24 h [1]: 203 µM
IC50 (HUVEC): 100 µM
viability at 24 h [2]: 95%

CCOC(=O)C1C(c2cccc(Cl)c2)N(c2ccccc2)OC12C(=O)Nc1ccccc12 (stereo not given)
MNTC at 24 h [1]: 223 µM
IC50 (HUVEC): 35 µM
viability at 24 h [2]: 97%

CCOC(=O)C1C(c2cccc(F)c2)N(c2ccccc2)OC12C(=O)Nc1ccccc12 (stereo not given)
MNTC at 24 h [1]: 116 µM
IC50 (HUVEC): 35 µM
viability at 24 h [2]: 98%

CCOC(=O)C1ON(c2ccccc2)C(c2ccc(OCC)cc2)C12C(=O)Nc1ccc(F)cc12 (stereo not given)
inhibition [4]: Dose-dependent effect
inhibition [5]: Active
MNTC at 24 h [1]: 105 µM
IC50 (HUVEC): 12 µM
IC50 (Neutrophil): 12.5 µM
inhibition (Neutrophil): Dose-dependent effect
inhibition [6]: Active
viability at 24 h [2]: 97%

CCOC(=O)C1ON(c2ccccc2)C(c2ccc(F)cc2)C12C(=O)Nc1ccccc12 (stereo not given)
MNTC at 24 h [1]: 116 µM
IC50 (HUVEC): 51 µM
viability at 24 h [2]: 96%
